20 compounds from US10093683B2, “Factor XIa inhibitors” (Merck Sharp & Dohme Corp., priority 2014, dated 2018) can be followed below.

Structures are written as SMILES.

human Factor XIa, sequence (P03951 388-625): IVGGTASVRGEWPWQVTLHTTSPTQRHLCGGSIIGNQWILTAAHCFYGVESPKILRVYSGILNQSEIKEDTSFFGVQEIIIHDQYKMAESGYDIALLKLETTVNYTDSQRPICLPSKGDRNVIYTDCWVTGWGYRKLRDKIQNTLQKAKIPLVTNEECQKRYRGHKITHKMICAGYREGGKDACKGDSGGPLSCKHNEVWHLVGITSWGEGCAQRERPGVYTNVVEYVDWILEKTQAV
human Factor XIa, sequence (P03951 19-387 partner): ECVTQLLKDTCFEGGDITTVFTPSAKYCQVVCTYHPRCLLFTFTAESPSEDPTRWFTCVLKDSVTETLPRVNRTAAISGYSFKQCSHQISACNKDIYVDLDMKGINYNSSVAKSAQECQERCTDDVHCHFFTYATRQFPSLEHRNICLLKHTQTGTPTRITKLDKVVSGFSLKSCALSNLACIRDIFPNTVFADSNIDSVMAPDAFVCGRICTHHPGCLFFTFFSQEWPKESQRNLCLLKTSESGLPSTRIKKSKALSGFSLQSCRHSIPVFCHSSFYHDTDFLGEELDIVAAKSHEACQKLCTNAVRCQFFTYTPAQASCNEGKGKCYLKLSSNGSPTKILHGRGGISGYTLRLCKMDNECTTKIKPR

One test addresses human Factor XIa (Homo sapiens (Human), UniProt P03951). The test is described as follows: Factor XIa Assay. The test is classed as biochemical. The conditions noted are these: purified human Factor XIa 40 pM, Z-Gly-Pro-Arg-AFC 100 μM, pH 7.4; read-out: FXIa Ki. The protocol: The effectiveness of a compound of the present invention as an inhibitor of Coagulation Factor XIa can be determined using a relevant purified serine protease, and an appropriate synthetic substrate. The rate of hydrolysis of the chromogenic or fluorogenic substrate by the relevant serine protease was measured both in the absence and presence of compounds of the present invention. Assays were conducted at room temperature or at 37° C. […] A decrease in the rate of fluorescence change in the presence of inhibitor is indicative of enzyme inhibition. Such methods are known to one skilled in the art. The results of this assay are expressed as the inhibitory constant, Ki.
Factor XIa determinations were made in 50 mM HEPES buffer at pH 7.4 containing 150 mM NaCl, 5 mM CaCl2, and 0.1% PEG 8000 (polyethylene glycol; JT Baker or Fisher Scientific). Determinations were made using purified human Factor XIa at a final concentration of 40 pM (Sekisui Diagnostics) and he synthetic substrate, Z-Gly-Pro-Arg-AFC, TFA salt (Sigma #C0980) at a concentration of 100 μM.
Times required to achieve equilibration between enzyme and inhibitor were determined in control experiments. Initial velocities of product formation in the absence (Vo) or presence of inhibitor (Vi) were measured. Assuming competitive inhibition, and that unity is negligible compared Km/[S], [I]/e, and [I]/e (where [S], [I], and e respectively represent the total concentrations, of substrate, inhibitor and enzyme), the equilibrium constant (Ki) for dissociation of the inhibitor from the enzyme can be obtained from the dependence of Vo/Vi on [I] shown in the following equation.
Broadly, the Ki is the equilibrium dissociation constant of an inhibitor or competing ligand from its target. Turning to `COC(=O)Nc1ccc(-c2c[nH]c([C@@H](Cc3ccccc3)C(=O)N3CC[C@@]4(C3)OC(=O)Nc3ccc(Cl)cc34)n2)cc1` [Example 122a, methyl (4-(2-((R)-1-((R)-6-chloro-2-oxo-1,2-dihydrospiro[benzo[d][1,3]oxazine-4,3′-pyrrolidin]-1′-yl)-1-oxo-3-phenylpropan-2-yl)-1H-imidazol-4-yl)phenyl)carbamate], the Ki stood at 33.6 nM. The same measure, in the same setting: for `COC(=O)Nc1ccc(C(=O)N[C@@H](Cc2ccc(NS(C)(=O)=O)cc2)C(=O)N2CCC[C@@]3(C2)OC(=O)Nc2ccc(Cl)cc23)cc1` [Example 46, methyl (4-(((S)-1-((R)-6-chloro-2-oxo-1,2-dihydrospiro[benzo[d][1,3]oxazine-4,3′-piperidin]-1′-yl)-3-(4-(methylsulfonamido)phenyl)-1-oxopropan-2-yl)carbamoyl)phenyl)carbamate] the value was 0.39 nM; for `COC(=O)Nc1ccc(C(=O)NC(CC2CCS(=O)(=O)CC2)C(=O)N2CCC3(C2)OC(=O)Nc2ccc(Cl)cc23)cc1` (centres unmarked) [Example 42, methyl (4-((1-(6-chloro-2-oxo-1,2-dihydrospiro[benzo[d][1,3]oxazine-4,3′-pyrrolidin]-1′-yl)-3-(1,1-dioxidotetrahydro-2H-thiopyran-4-yl)-1-oxopropan-2-yl)carbamoyl)phenyl)carbamate], 83.6 nM; for `O=C1Nc2ccc(Cl)cc2[C@@]2(CCCN(C(=O)[C@H](Cc3ccccc3)Nc3ccc(-c4ccc(O)nc4)cn3)C2)O1` [Example 295, (R)-6-chloro-1′-((6′-hydroxy-[3,3′-bipyridin]-6-yl)-L-phenylalanyl)spiro[benzo[d][1,3]oxazine-4,3′-piperidin]-2(1H)-one], 10000 nM. Regarding `COC(=O)Nc1ccc(-c2nc(C(Cc3ccccc3)C(=O)N3CCCC4(C3)OC(=O)Nc3ccc(Cl)c(F)c34)[nH]c2Cl)cc1` (single isomer, unassigned) [Example 126B, methyl (4-(5-chloro-2-(1-(6-chloro-5-fluoro-2-oxo-1,2-dihydrospiro[benzo[d][1,3]oxazine-4,3′-piperidin]-1′-yl)-1-oxo-3-phenylpropan-2-yl)-1H-imidazol-4-yl)phenyl)carbamate], the Ki is 154 nM.

For `COC(=O)Nc1ccc(-c2c[nH]c([C@H](Cc3ccccc3)C(=O)N3CC[C@@]4(C3)OC(=O)Nc3ccc(Cl)cc34)n2)cc1` [Example 122d, methyl (4-(2-((S)-1-((R)-6-chloro-2-oxo-1,2-dihydrospiro[benzo[d][1,3]oxazine-4,3′-pyrrolidin]-1′-yl)-1-oxo-3-phenylpropan-2-yl)-1H-imidazol-4-yl)phenyl)carbamate], the inhibition constant (Ki) was determined as 364 nM.

For the compound `COC(=O)Nc1ccc(C(=O)N[C@@H](CCC(F)(F)F)C(=O)N2CCC[C@@]3(C2)OC(=O)Nc2ccc(Cl)c(F)c23)cc1` [Example 36, methyl (4-(((S)-1-((R)-6-chloro-5-fluoro-2-oxo-1,2-dihydrospiro[benzo[d][1,3]oxazine-4,3′-piperidin]-1′-yl)-5,5,5-trifluoro-1-oxopentan-2-yl)carbamoyl)phenyl)carbamate], the Ki worked out at 84.4 nM. The same measure, in the same setting: for `COC(=O)Nc1ccc(C(=O)N[C@@H](CC2CCC(F)(F)CC2)C(=O)N2CCC[C@@]3(C2)OC(=O)Nc2ccc(Cl)cc23)cc1` [Example 106, methyl (4-(((S)-1-((R)-6-chloro-2-oxo-1,2-dihydrospiro[benzo[d][1,3]oxazine-4,3′-piperidin]-1′-yl)-3-(4,4-difluorocyclohexyl)-1-oxopropan-2-yl)carbamoyl)phenyl)carbamate] the value was 16.8 nM; for `COC/C=C/c1ccc(C[C@H](NC(=O)c2ccc(NC(=O)OC)cc2)C(=O)N2CC[C@@]3(C2)OC(=O)Nc2ccc(Cl)cc23)cc1` [Example 80, methyl (4-(((S)-1-((R)-6-chloro-2-oxo-1,2-dihydrospiro[benzo[d][1,3]oxazine-4,3′-pyrrolidin]-1′-yl)-3-(4-((E)-3-methoxyprop-1-en-1-yl)phenyl)-1-oxopropan-2-yl)carbamoyl)phenyl)carbamate], 75 nM.

As to `COC(=O)Nc1ccc(C(=O)N[C@@H](CC(=O)Nc2ccc(F)cc2)C(=O)N2CC[C@@]3(C2)OC(=O)Nc2ccc(Cl)cc23)cc1` [Example 91, methyl (4-(((S)-1-((R)-6-chloro-2-oxo-1,2-dihydrospiro[benzo[d][1,3]oxazine-4,3′-pyrrolidin]-1′-yl)-4-((4-fluorophenyl)amino)-1,4-dioxobutan-2-yl)carbamoyl)phenyl)carbamate], the Ki turned out to be 144 nM. `COC(=O)Nc1ccc(C(=O)N[C@@H](Cc2ccccc2)C(=O)N2CC[C@]3(C2)OC(=O)Nc2ncc(Cl)cc23)cc1` [Example 1a, methyl (4-(((S)-1-((S)-6-chloro-2-oxo-1,2-dihydrospiro[pyrido[2,3-d][1,3]oxazine-4,3′-pyrrolidin]-1′-yl)-1-oxo-3-phenylpropan-2-yl)carbamoyl)phenyl)carbamate]: the inhibition constant Ki came to 3470 nM.

As to `COC(=O)Nc1ccc(-c2nc(C(Cc3ccccc3)C(=O)N3CCCC4(C3)OC(=O)Nc3ccc(Cl)c(F)c34)[nH]c2Cl)cc1` (single isomer, unassigned) [Example 126A, methyl (4-(5-chloro-2-(1-(6-chloro-5-fluoro-2-oxo-1,2-dihydrospiro[benzo[d][1,3]oxazine-4,3′-piperidin]-1′-yl)-1-oxo-3-phenylpropan-2-yl)-1H-imidazol-4-yl)phenyl)carbamate], the Ki stood at 1880 nM.

Staying with this test, now noted: read-out: FXIa Ki.
Consider `COC(=O)Nc1ccc(C(=O)N[C@@H](CC2CC2)C(=O)N2CCC[C@@]3(C2)OC(=O)Nc2ccc(Cl)cc23)c(Cl)c1` [Example 201, methyl (3-chloro-4-(((S)-1-((R)-6-chloro-2-oxo-1,2-dihydrospiro[benzo[d][1,3]oxazine-4,3′-piperidin]-1′-yl)-3-cyclopropyl-1-oxopropan-2-yl)carbamoyl)phenyl)carbamate], for which the Ki stood at 91.3 nM. The same measure, in the same setting: for `O=C1Nc2ccc(Cl)cc2[C@@]2(CCCN(C(=O)[C@H](CC3CC3)NC(=O)c3csc(C(=O)O)n3)C2)O1` [Example 239] the value was 405 nM; for `O=C1Nc2ccc(Cl)cc2C2(CCN(C(=O)[C@H](Cc3ccccc3)NC(=O)c3ccc4c(c3)S(=O)(=O)N=CN4)C2)O1` (some centres unmarked) [Example 263], 1970 nM; for `O=C1Nc2ccc(Cl)cc2[C@@]2(CCCN(C(=O)[C@H](CC3CC3)NC(=O)c3cnc4c(c3)CCN4)C2)O1` [Example 207], 8750 nM. As for `O=C1Nc2ccc(Cl)cc2C2(CCN(C(=O)[C@H](Cc3ccccc3)NC(=O)c3ccc(O)c(F)c3)C2)O1` (stereo partly drawn) [Example 178, N-((2S)-1-(6-chloro-2-oxo-1,2-dihydrospiro[benzo[d][1,3]oxazine-4,3′-pyrrolidin]-1′-yl)-1-oxo-3-phenylpropan-2-yl)-3-fluoro-4-hydroxybenzamide], the Ki stood at 251 nM. With `Cc1nc(N)sc1C(=O)N[C@@H](Cc1ccccc1)C(=O)N1CCC2(C1)OC(=O)Nc1ccc(Cl)cc12` (some centres unmarked) [Example 170], the Ki amounted to 508 nM. Same read-out and setting: for `O=C1Nc2ccc(Cl)cc2C2(CCN(C(=O)[C@H](Cc3ccccc3)NC(=O)c3ccc(C4(C(=O)O)CC4)cc3)C2)O1` (stereo partly drawn) [Example 160, 1-(4-(((2S)-1-(6-chloro-2-oxo-1,2-dihydrospiro[benzo[d][1,3]oxazine-4,3′-pyrrolidin]-1′-yl)-1-oxo-3-phenylpropan-2-yl)carbamoyl)phenyl)cyclopropanecarboxylic acid] the value was 5000 nM. In the case of `Nc1n[nH]c2ccc(C(=O)N[C@@H](Cc3ccccc3)C(=O)N3CCC4(C3)OC(=O)Nc3ccc(Cl)cc34)cc12` (some centres unmarked) [Example 185], the Ki worked out at 96 nM.
